From US5681826A, “Saccharide composition with reduced reducibility, and preparation and uses thereof” (Kabushiki Kaisha Hayashibara Seibutsu Kagaku Kenkyujo, priority 1994, dated 1997)
Entries after “also recorded” stand apart in the source; their conditions may differ.

Tests used:
[1] = Utilization test in vivo, oral administration to healthy male volunteers; set-up: species or system human; conditions: 30 g oral
Method: In accordance with the method as reported by H. Atsuji et al. in "Rinsho-Eiyo", Vol.41, No.2, pp.200-208 (1972), 30 g of a high-purity trehalose preparation with a purity of 99.5%, d.s.b., obtained by the method in Experiment 17 was dissolved in water into a 20 w/v % aqueous solution which was then orally administered to 6 healthy male volunteers. The volunteers were collected their blood at a prescribed time interval, and each collected blood was assayed for blood sugar- and insulin-levels. As a control Glucose was used.

[2] = tested on: trehalose derived from pig kidney; assay: Hydrolysis of trehalose by enzyme derived from pig kidney; format: biochemical; conditions: pH 5.7, 37°C., 18 hours (Experiment 7)
Method: To purify trehalose in each reaction mixture, it was subjected to column chromatography using a column packed with "XT-1016", a strong-acid cation exchange resin in Na^+ -form commercialized by Tokyo Organic Chemical Industries, Ltd., Tokyo, Japan, followed by recovering fractions containing 97% or more of trehalose. The fractions were pooled and concentrated into an about 65% solution which was then allowed to stand at 25° C. for 2 days to crystallize trehalose into hydrous crystalline trehalose, followed by separating and drying it in vacuo to obtain a high-purity trehalose preparation with a purity of 99% or more, d.s.b. The yields of trehalose from glucosyltrehalose, maltosyltrehalose, maltotriosyltrehalose, maltotetraosyltrehalose and maltopentaosyltrehalose used as a substrate were respectively 9.5%, 14.9%, 16.0%, 18.5% and 17.7%, d.s.b. The high-purity trehalose preparations and a commercially available trehalose specimen as a standard were studied for melting point, heat of fusion, specific rotation, infrared absorption spectrum, powdery X-ray diffraction pattern, and readiness of hydrolysis by a […] derived from pig kidney, commercialized by Sigma Chemical Co., St. Louise, USA.

[3] = Maillard reaction with glycine, absorbance at 480 nm; format: physicochemical
Method: A solution, containing one % glycine and 10% of a saccharide preparation PI, P II, P III, P IV or P V in Experiment 4 and 50 mM phosphate buffer (pH 7.0), was kept at 100° C. for 90 min, followed by cooling the resultant solution, and determining for absorbance at a wave length of 480 nm in a 1-cm cell. As a control, maltotriose, maltotetraose, maltopentaose, maltohexaose and maltoheptaose, as a material for the saccharide preparations, were similarly treated as above, and measured for absorbance at a wave length of 480 nm.
A solution, containing one % of glycine, 10% of a high-purity trehalose preparation with a purity of 99.5%, d.s.b., obtained by the method in Experiment 17, and 50 mM phosphate buffer (pH 7.0), was kept at 100° C. for 90 min, followed by cooling the resultant solution and determining the absorbance at a wave length of 480 nm in a 1-cm cell. As a control, glucose and maltose were similarly treated as above, and the resultants were determined for absorbance at a wave length of 480 nm.

Time of maximum blood sugar level ([1]; 20 w/v % aqueous solution): 0.5 to 1 h
Time of maximum insulin level ([1]; 20 w/v % aqueous solution): 0.5 to 1 h
Coloration degree relative to glucose or maltose [3]: 0.4-0.6%
Coloration degree (480 nm) ([3]; one % glycine, 10% saccharide, pH 7.0, 100°C., 90 min, 1-cm cell): 0.006
SMILES: OC[C@H]1O[C@H](O[C@H]2O[C@H](CO)[C@@H](O)[C@H](O)[C@H]2O)[C@H](O)[C@@H](O)[C@@H]1O [Trehalose, α,α-trehalose]
Utilization by the body ([1]; control glucose): readily assimilated, absorbed, metabolized and utilized by the body as an energy source
Hydrolysis to glucose by pig kidney enzyme [2]: hydrolyzed by trehalose into glucose molecules; also recorded: decomposed into glucose molecules
Maillard reaction [3]: substantially free from the maillard reaction
